Experimental data: ChEMBL document CHEMBL3997794, “Design and synthesis of benzodiazepine analogs as isoform-selective human lysine deacetylase inhibitors” (Eur J Med Chem, 2017)
pIC50: −log10 of the molar value.

How the values were obtained:
[1] = molecular target: T1, Histone deacetylase 3 (Homo sapiens, UniProt O15379); assay: Inhibition of human KDAC3 at 30 uM using FITC-labeled p53 acetylated peptide as substrate after 60 mins by fluorescence assay relative to control
[2] = molecular target: T1, Histone deacetylase 3; assay: Inhibition of human KDAC3 using FITC-labeled p53 acetylated peptide as substrate after 60 mins by fluorescence assay
[3] = molecular target: T2, Histone deacetylase 8 (Homo sapiens, UniProt Q9BY41); assay: Inhibition of human KDAC8 after 60 mins by fluorescence assay
T2 sequence (Q9BY41 whole entry): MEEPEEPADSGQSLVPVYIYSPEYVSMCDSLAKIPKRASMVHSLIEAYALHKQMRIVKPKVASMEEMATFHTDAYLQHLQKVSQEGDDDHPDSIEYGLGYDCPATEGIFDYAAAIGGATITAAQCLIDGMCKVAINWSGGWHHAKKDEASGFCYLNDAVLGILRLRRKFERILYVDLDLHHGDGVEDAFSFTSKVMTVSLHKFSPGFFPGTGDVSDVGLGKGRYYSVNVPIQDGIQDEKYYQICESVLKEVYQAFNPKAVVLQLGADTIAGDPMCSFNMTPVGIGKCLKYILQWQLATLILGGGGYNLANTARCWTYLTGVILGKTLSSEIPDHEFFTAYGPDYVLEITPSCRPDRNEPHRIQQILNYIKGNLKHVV

[4] = molecular target: T3, Protein deacetylase HDAC6 (Homo sapiens) (UniProt Q9UBN7); details: at 30 µM
T3 sequence (whole entry): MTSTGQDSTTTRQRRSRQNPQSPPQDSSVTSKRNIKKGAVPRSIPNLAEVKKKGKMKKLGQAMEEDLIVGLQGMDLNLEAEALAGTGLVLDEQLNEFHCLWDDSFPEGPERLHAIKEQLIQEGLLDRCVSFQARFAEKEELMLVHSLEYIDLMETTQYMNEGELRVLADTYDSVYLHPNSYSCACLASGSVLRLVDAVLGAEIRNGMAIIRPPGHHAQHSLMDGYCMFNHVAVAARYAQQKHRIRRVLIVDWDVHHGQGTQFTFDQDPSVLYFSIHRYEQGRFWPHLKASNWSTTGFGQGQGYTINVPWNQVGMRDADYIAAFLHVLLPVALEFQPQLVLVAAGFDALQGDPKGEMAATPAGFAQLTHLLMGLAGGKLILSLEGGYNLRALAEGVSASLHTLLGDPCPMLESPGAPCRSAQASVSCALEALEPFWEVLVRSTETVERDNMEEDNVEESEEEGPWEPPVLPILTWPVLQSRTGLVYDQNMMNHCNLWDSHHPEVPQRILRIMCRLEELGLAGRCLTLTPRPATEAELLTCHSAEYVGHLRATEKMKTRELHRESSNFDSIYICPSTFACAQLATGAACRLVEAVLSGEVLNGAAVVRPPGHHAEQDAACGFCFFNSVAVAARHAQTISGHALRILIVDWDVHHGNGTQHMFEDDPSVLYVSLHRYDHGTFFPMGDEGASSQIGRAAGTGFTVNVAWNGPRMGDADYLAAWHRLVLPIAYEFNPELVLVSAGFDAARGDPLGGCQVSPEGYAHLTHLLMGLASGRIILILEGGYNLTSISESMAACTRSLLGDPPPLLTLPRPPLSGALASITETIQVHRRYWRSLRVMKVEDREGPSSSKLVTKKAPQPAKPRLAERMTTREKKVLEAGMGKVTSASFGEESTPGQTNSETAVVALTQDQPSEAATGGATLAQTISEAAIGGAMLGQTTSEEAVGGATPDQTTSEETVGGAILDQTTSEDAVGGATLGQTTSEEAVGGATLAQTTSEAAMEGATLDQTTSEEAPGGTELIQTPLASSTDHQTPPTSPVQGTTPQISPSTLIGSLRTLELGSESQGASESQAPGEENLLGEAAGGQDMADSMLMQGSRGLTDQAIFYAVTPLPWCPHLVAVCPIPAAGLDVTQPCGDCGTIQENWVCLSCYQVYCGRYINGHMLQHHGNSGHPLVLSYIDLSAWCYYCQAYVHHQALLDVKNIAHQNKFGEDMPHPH
Description: Inhibition of human KDAC6 at 30 uM using FITC-labeled histone H4 acetylated peptide as substrate after 60 mins by fluorescence assay relative to control

[5] = molecular target: T4, Protein deacetylase HDAC6 (Homo sapiens, UniProt Q9UBN7); assay: Inhibition of human KDAC6 using FITC-labeled histone H4 acetylated peptide as substrate after 60 mins by fluorescence assay
T4 sequence (Q9UBN7 whole entry): T3 sequence (whole entry)

[6] = molecular target: T5, Histone deacetylase 8 (Homo sapiens) (UniProt Q9BY41); assay: Inhibition of human KDAC8 at 30 uM after 60 mins by fluorescence assay relative to control
T5 sequence (whole entry): T2 sequence (Q9BY41 whole entry)

[7] = molecular target: T6, Histone deacetylase 1 (Homo sapiens, UniProt Q13547); assay: Inhibition of human KDAC1 at 30 uM using substrate A after 60 mins by fluorescence assay relative to control
[8] = molecular target: T6, Histone deacetylase 1; assay: Inhibition of human KDAC1 using substrate A after 60 mins by fluorescence assay

T6 sequence (Q13547 whole entry): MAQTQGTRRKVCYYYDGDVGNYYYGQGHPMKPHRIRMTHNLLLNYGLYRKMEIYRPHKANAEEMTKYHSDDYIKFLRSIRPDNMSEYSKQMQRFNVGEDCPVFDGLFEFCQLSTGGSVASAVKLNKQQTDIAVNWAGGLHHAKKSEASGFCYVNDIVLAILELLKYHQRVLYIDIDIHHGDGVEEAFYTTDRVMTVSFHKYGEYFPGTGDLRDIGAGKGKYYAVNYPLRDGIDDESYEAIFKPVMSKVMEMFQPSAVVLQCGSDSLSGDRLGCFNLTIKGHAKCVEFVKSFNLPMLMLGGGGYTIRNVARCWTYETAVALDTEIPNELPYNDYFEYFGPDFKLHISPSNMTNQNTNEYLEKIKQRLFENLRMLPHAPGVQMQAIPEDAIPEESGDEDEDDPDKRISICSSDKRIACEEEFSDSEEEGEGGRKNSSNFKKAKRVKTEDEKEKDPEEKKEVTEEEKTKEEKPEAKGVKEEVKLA
T1 sequence (O15379 whole entry): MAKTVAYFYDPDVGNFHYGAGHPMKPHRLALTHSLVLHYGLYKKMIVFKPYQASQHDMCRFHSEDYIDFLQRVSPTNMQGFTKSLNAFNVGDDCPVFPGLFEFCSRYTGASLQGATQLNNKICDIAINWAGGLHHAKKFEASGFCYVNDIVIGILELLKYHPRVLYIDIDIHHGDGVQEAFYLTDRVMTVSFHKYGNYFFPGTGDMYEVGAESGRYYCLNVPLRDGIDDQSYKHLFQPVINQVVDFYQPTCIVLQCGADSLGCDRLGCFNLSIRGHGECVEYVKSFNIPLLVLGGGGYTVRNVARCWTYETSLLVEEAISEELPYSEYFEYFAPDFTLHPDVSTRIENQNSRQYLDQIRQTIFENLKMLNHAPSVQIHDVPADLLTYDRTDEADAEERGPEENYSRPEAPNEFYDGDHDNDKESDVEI

SMILES | inhibition [1] [%] | pIC50 [2] | pIC50 [3] | inhibition [4] [%] | pIC50 [5] | inhibition [6] [%] | inhibition [7] [%] | pIC50 [8]
CC(C)(C)OC(=O)NCCCC[C@@H]1N=C(c2ccccc2)c2ccccc2N(CCCCC(=O)NO)C1=O | 98.8 | 6.23 | 4.66 | 89.9 | 5.51 | 56 | 84.4 | 5.33
COC(=O)CCCCN1C(=O)[C@@H](CSC(C)(C)C)N=C(c2ccccc2)c2ccccc21 | 0 | < 4.52 | < 4.52 | 0 | < 4.52 | 0 | 3.94 | < 4.52
Cc1c(C)c(S(=O)(=O)NC(=N)NCCC[C@@H]2N=C(c3ccccc3)c3ccccc3NC2=O)c(C)c2c1OC(C)(C)C2 | 0.47 | < 4.52 | < 4.52 | 0 | < 4.52 | 7.99 | 8 | < 4.52
CSCC[C@@H]1N=C(c2ccccc2)c2ccccc2N(CCCCC(=O)O)C1=O | 0 | < 4.52 | < 4.52 | 0 | < 4.52 | 2.75 | 4.46 | < 4.52
CC(C)(C)OC(=O)CC[C@@H]1N=C(c2ccccc2)c2ccccc2N(CCCCC(=O)NO)C1=O | 99.9 | 5.99 | 4.58 | 93.7 | 5.63 | 52.5 | 83.8 | 5.34
CC(C)(C)OC(=O)C[C@@H]1N=C(c2ccccc2)c2ccccc2N(CCCCC(=O)O)C1=O | 2.62 | < 4.52 | < 4.52 | 0 | < 4.52 | 0 | 0 | < 4.52
CC(C)(C)Oc1ccc(C[C@@H]2N=C(c3ccccc3)c3ccccc3N(CCCCC(=O)O)C2=O)cc1 | 1.05 | < 4.52 | < 4.52 | 0.28 | < 4.52 | 2.15 | 4.65 | < 4.52
COC(=O)CCCCN1C(=O)[C@H](CC(C)C)N=C(c2ccccc2)c2ccccc21 | 0 | < 4.52 | < 4.52 | 0 | < 4.52 | 7.63 | 8.85 | < 4.52
CC(C)(C)SC[C@H]1N=C(c2ccccc2)c2ccccc2N(CCCCC(=O)O)C1=O | 0 | < 4.52 | < 4.52 | 2.08 | < 4.52 | 8.31 | 12.1 | < 4.52
Cc1c(C)c(S(=O)(=O)NC(=N)NCCC[C@@H]2N=C(c3ccccc3)c3ccccc3N(CCCCC(=O)NO)C2=O)c(C)c2c1OC(C)(C)C2 | 94.6 | 5.37 | < 4.52 | 70.2 | 4.79 | 22.6 | 39.1 | < 4.52
CC(C)[C@@H]1N=C(c2ccccc2)c2ccccc2N(CCCCC(=O)NO)C1=O | 97 | 6.22 | 4.70 | 95.5 | 5.87 | 59.4 | 81.4 | 5.28
COC(=O)CCCCN1C(=O)[C@H](Cc2ccc(OC(C)(C)C)cc2)N=C(c2ccccc2)c2ccccc21 | 0.98 | < 4.52 | < 4.52 | 0 | < 4.52 | 0 | 8.72 | < 4.52
NC(=O)CC[C@@H]1N=C(c2ccccc2)c2ccccc2N(CCCCC(=O)NO)C1=O | 94 | 5.71 | < 4.52 | 96 | 5.89 | 30.8 | 64.5 | 4.86
O=C(CCCNC(=O)C[C@@H]1N=C(c2ccccc2)c2ccccc2NC1=O)NO | 90.7 | 5.49 | < 4.52 | 95 | 5.75 | 45.1 | 63.5 | 4.76
CC(C)[C@@H]1N=C(c2ccccc2)c2ccccc2NC1=O | 0 | < 4.52 | < 4.52 | 3.25 | < 4.52 | 0 | 0 | < 4.52
CC(C)(C)OC(=O)n1cc(C[C@@H]2N=C(c3ccccc3)c3ccccc3NC2=O)c2ccccc21 | 1.32 | < 4.52 | < 4.52 | 0 | < 4.52 | 0 | 6.47 | < 4.52
COC(=O)CCCCN1C(=O)[C@H](COC(C)(C)C)N=C(c2ccccc2)c2ccccc21 | 0 | < 4.52 | < 4.52 | 0 | < 4.52 | 5 | 0.36 | < 4.52
O=C(O)CC[C@H]1N=C(c2ccccc2)c2ccccc2NC1=O | 0 | < 4.52 | < 4.52 | 0 | < 4.52 | 0 | 10.2 | < 4.52
O=C(O)C[C@@H]1N=C(c2ccccc2)c2ccccc2N(CCCCC(=O)NO)C1=O | 75.5 | 4.90 | < 4.52 | 57.8 | 4.70 | 39.4 | 47.9 | < 4.52
O=C(CCCCN1C(=O)[C@H](Cc2ccc(O)cc2)N=C(c2ccccc2)c2ccccc21)NO | 86.4 | 5.28 | < 4.52 | 78.5 | 5.07 | 14.9 | 42.9 | < 4.52
CC(C)(C)OC[C@@H]1N=C(c2ccccc2)c2ccccc2N(CCCCC(=O)NO)C1=O | 94.6 | 5.92 | < 4.52 | 85.1 | 5.30 | 26.9 | 73.7 | 5.05
CC[C@H](C)[C@@H]1N=C(c2ccccc2)c2ccccc2N(CCCCC(=O)O)C1=O | 0 | < 4.52 | < 4.52 | 0 | < 4.52 | 3.99 | 0 | < 4.52
O=C(O)CCCCN1C(=O)[C@H](CC(=O)O)N=C(c2ccccc2)c2ccccc21 | 1.93 | < 4.52 | < 4.52 | 0 | < 4.52 | 0 | 0 | < 4.52
CC(C)(C)OC[C@@H]1N=C(c2ccccc2)c2ccccc2NC1=O | 0.38 | < 4.52 | < 4.52 | 2.44 | < 4.52 | 0 | 1.48 | < 4.52
